In article PMC5215686 (Journal of medicinal chemistry, 2016):
Values joined by “and” are separate entries in the source; they are usually repeats but may differ in a detail not shown here. Identical values can stand only once.

Key:
HEK293T cells = experiment: Cytotoxicity, CellTiter-Glo; assay type: cell-based, human; settings: for Cytotoxicity (18 h) LD50: CellTiter-Glo, n = 4; for Cytotoxicity in words: 18 h, 100 μM
[1] = Plasma and brain exposure after dosing in rats; assay type: in vivo, Sprague-Dawley rats; settings: rat; for Brain concentration of dosed ligand, 60 min / Total Plasma Concentration, 15 min / Total Plasma Concentration, 30 min / Total Plasma Concentration, 60 min / Brain concentration of dosed ligand, 120 min / Total Plasma Concentration, 120 min: p.o. 10 mg/kg; for Plasma exposure in words: i.v. (1 mg/kg) or p.o. (10 mg/kg); for Total Plasma Concentration, 15 min / Total Plasma Concentration, 30 min / Total Plasma Concentration, 60 min / Brain concentration of dosed ligand, 120 min / Total Plasma Concentration, 120 min: BQL: quantifiable limit < 12.2 nM
NIH Swiss Webster mice [2] = experiment: Rotarod assay; assay type: in vivo; settings: 4 r.p.m., 2 min; for Rotarod motorsensory behavior, 10 mg/kg: i.p. 10 mg/kg
[3] = Rat pharmacokinetics i.v. and i.p., plasma and brain concentrations; assay type: in vivo, Sprague-Dawley rats
Sprague-Dawley rats = experiment: Vogel conflict test; assay type: in vivo; settings: rat
[4] = Solubility by light scattering; assay type: physicochemical; settings: pH=7, by light scattering
NIH Swiss Webster mice [5] = experiment: Marble burying assay; assay type: in vivo

C#Cc1ccc2c(c1)C(c1ccccc1)=NCc1c(-c3cnco3)ncn1-2 [compound 8]
Cytotoxicity (18 h) LD50 (HEK293T cells): 66.8 µM and 66.8 ± 9 µM

C#Cc1ccc2c(c1)C(c1ccccn1)=NCc1c(-c3cnco3)ncn1-2 [compound 9, 5-(8-Ethynyl-6-(pyridin-2-yl)-4H-benzo[f]imidazo[1,5-a][1,4]diazepin-3-yl)oxazole]
Cytotoxicity in words (HEK293T cells): non-toxic
Brain concentration of dosed ligand, 60 min [1]: (60) 3640 nM
Rotarod failures, 30 mg/kg (NIH Swiss Webster mice [2]; i.p. 30 mg/kg): zero failures
Rotarod performance / ataxia, 30 mg/kg (NIH Swiss Webster mice [2]; i.p. 30 mg/kg): did not significantly alter rotarod performance compared to vehicle
time of Cmax ([3]; 10 mg/kg i.p.): 2.0 h
Unbound Concentration (Cu), Brain ([3]; 4 hours after 10 mg/kg i.p., free fraction x total concentration): 363 nM
Vogel conflict, punished response vs. control, 3 mg/kg (Sprague-Dawley rats; 3 mg/kg i.p., 30 min pretreatment): no increase in response
Vogel conflict, increase of punished response rate over control, 30 mg/kg (Sprague-Dawley rats; 30 mg/kg i.p., 30 min pretreatment): about 220%
solubility [4]: good

[2H]C([2H])(C)OC(=O)c1ncn2c1CN=C(c1ccccn1)c1cc(C#C)ccc1-2 [compound 5]
Plasma exposure in words [1]: poor
Total Plasma Concentration, 15 min [1]: BQL ^c
Total Plasma Concentration, 30 min [1]: BQL ^c
Total Plasma Concentration, 60 min [1]: BQL ^c
Brain concentration of dosed ligand, 120 min [1]: (120) BQL ^c
Total Plasma Concentration, 120 min [1]: BQL ^c

CNC1=Nc2ccc(Cl)cc2C(c2ccccc2)=[N+]([O-])C1 [CDAP, chlordiazepoxide, reference compound]
Vogel conflict, response rate in the unpunished session, 20 mg/kg (Sprague-Dawley rats; 20 mg/kg i.p.): Neither
Vogel conflict, punished response over control, 20 mg/kg (Sprague-Dawley rats; 20 mg/kg i.p., P < 0.05): 330%

C#Cc1ccc2c(c1)C(c1ccccc1F)=NCc1c(-c3cnco3)ncn1-2 [compound 10]
Cytotoxicity (18 h) LD50 (HEK293T cells): 61.5 µM and 61.5 ± 10 µM
Rotarod motorsensory behavior, 10 mg/kg (NIH Swiss Webster mice [2]): very minor impairment

C#Cc1ccc2c(c1)C(c1ccccn1)=NCc1c(C(=O)OCC)ncn1-2 [compound 2]
Cytotoxicity in words (HEK293T cells): non-toxic
Plasma exposure in words [1]: poor
Total Plasma Concentration, 15 min [1]: BQL ^c
Total Plasma Concentration, 30 min [1]: BQL ^c
Total Plasma Concentration, 60 min [1]: BQL ^c
Brain concentration of dosed ligand, 120 min [1]: (120) BQL ^c
Total Plasma Concentration, 120 min [1]: BQL ^c
Vogel conflict, difference from vehicle in words, 30 mg/kg (Sprague-Dawley rats; 30 mg/kg i.p.): no discernable difference

C#Cc1ccc2c(c1)C(c1ccccn1)=NCc1c(-c3nc(CC)no3)ncn1-2 [compound 7]
Cytotoxicity in words (HEK293T cells): non-toxic
Brain concentration of dosed ligand, 60 min [1]: (60) 3090 nM
Marble burying vs. vehicle, 10 mg/kg (NIH Swiss Webster mice [5]; i.p. 10 mg/kg, 30 min prior to testing): significant reduction
Sedation-like behavior observed in marble burying (NIH Swiss Webster mice [5]; i.p. 30 mg/kg): weak signs of sedation

C#Cc1ccc2c(c1)C(c1ccccn1)=NCc1c(C(=O)O)ncn1-2 [compound 4]
Brain concentration of dosed ligand, 120 min [1]: (120) BQL ^c

C#Cc1ccc2c(c1)C(c1ccccn1)=NCc1c(-c3nc(C)no3)ncn1-2 [compound 6]
Cytotoxicity in words (HEK293T cells): non-toxic
Rotarod motorsensory behavior, 10 mg/kg (NIH Swiss Webster mice [2]): very minor impairment
